# Results from ChEMBL document CHEMBL5725591, “Tricyclic PI3K inhibitor compounds and methods of use” (2018).
# pKi: −log10 of the molar value.
# Target: Phosphatidylinositol 4,5-bisphosphate 3-kinase catalytic subunit alpha isoform (Homo sapiens, UniProt P42336)
# Assay: p110alpha (alpha) PI3K Binding Assay: PI3K Binding assays are intended for determining the biochemical potency of small molecule PI3K inhibitors. The PI3K lipid kinase reaction is performed in the presence of PIP2:3PS lipid substrate (Promega #V1792) and ATP. Following the termination if the kinase reaction, turnover of ATP to ADP by the phosphorylation of the lipid substrate is detected using the Promega ADP-Glo¿ (Promega #V1792) assay.
# Sequence of Phosphatidylinositol 4,5-bisphosphate 3-kinase catalytic subunit alpha isoform (P42336 whole entry, canonical isoform): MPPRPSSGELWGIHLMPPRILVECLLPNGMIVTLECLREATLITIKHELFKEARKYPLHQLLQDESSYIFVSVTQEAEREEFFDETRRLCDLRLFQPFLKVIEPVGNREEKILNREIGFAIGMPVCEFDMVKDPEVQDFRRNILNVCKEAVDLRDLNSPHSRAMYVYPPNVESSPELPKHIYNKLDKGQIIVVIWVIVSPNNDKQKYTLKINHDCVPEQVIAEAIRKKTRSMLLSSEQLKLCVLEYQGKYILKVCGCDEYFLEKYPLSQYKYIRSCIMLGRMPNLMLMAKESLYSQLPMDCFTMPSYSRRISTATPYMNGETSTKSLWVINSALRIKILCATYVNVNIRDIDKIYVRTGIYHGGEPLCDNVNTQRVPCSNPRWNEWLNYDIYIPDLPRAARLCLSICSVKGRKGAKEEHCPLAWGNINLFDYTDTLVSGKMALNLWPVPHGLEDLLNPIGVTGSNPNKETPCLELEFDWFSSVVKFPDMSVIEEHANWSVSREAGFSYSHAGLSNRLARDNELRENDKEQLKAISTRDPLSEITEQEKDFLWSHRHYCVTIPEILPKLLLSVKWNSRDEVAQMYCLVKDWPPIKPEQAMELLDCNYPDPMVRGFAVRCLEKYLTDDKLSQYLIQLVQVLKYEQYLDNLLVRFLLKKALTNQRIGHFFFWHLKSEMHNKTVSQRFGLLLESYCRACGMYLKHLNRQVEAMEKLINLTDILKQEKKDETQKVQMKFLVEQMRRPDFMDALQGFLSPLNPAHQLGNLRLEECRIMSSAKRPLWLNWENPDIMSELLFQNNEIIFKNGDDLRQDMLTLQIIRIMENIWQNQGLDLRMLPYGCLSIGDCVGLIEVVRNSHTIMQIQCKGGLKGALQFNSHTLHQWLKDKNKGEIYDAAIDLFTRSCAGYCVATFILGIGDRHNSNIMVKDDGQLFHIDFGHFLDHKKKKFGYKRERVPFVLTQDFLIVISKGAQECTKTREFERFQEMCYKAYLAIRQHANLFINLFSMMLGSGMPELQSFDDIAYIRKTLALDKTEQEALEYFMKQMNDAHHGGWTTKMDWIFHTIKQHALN
row,SMILES,pKi
1,Cn1cc(-c2nc3cc(N[C@H](C(N)=O)C4CC4)cc4c3n2CCCO4)cn1,6.44
2,Cn1ncnc1-c1nc2cc(N[C@H](C(N)=O)C3CC3)cc3c2n1CCCO3,6.40

# The next molecules have a higher pKi than those just listed; values first:
row,pKi,SMILES
1,7.62,NC(=O)[C@@H](Nc1cc2c3c(c1)nc(-c1ccc4c(n1)OCCO4)n3CCCO2)C1CC1
2,9.10,"CC[C@@H](Oc1cc2c3c(c1)nc(-c1ccc4oc(N)nc4c1)n3CCCO2)C(N)=O (single isomer, unassigned)"
3,9.57,"CC[C@H](Oc1cc2c3c(c1)nc(-c1ccc4oc(N)nc4c1)n3CCCO2)C(N)=O (single isomer, unassigned)"
